# Test results taken from ChEMBL document CHEMBL4613212, “Insights of synthetic analogues of anti-leprosy agents” (Bioorg Med Chem, 2019).
# Tests used:
# Assay type in all cases: functional
# Mycobacterium leprae [1] = experiment: Antimicrobial activity against Mycobacterium leprae assessed as microbial growth at 0.0469 ug/ml in presence of 0.0062 ug/ml KRM-1648 measured at 4 weeks (reference value: 147 +/- 19.1%)
# Mycobacterium leprae [2] = experiment: Antimicrobial activity against Mycobacterium leprae assessed as fractional inhibitory concentration index at 0.0469 ug/ml in presence of 0.05 ug/ml rifabutin measured at 4 weeks
# Mycobacterium leprae [3] = experiment: Antimicrobial activity against Mycobacterium leprae assessed as microbial growth at 0.0938 ug/ml in presence of 0.1 ug/ml rifampin measured at 4 weeks (reference value: 147 +/- 19.1%)
# Mycobacterium leprae [4] = experiment: Antimicrobial activity against Mycobacterium leprae assessed as microbial growth at 0.0469 ug/ml in presence of 0.05 ug/ml rifabutin measured at 4 weeks (reference value: 147 +/- 19.1%)
# Mycobacterium leprae [5] = experiment: Antimicrobial activity against Mycobacterium leprae assessed as fractional inhibitory concentration index at 0.0938 ug/ml in presence of 0.2 ug/ml rifampin measured at 4 weeks
# Mycobacterium leprae [6] = experiment: Antimicrobial activity against Mycobacterium leprae assessed as microbial growth at 0.0469 ug/ml in presence of 0.025 ug/ml rifabutin measured at 4 weeks (reference value: 147 +/- 19.1%)
# Mycobacterium leprae [7] = experiment: Antimicrobial activity against Mycobacterium leprae assessed as fractional inhibitory concentration index at 0.0469 ug/ml in presence of 0.0062 ug/ml KRM-1648 measured at 4 weeks
# Mycobacterium leprae [8] = experiment: Antimicrobial activity against Mycobacterium leprae assessed as microbial growth at 0.0469 ug/ml in presence of 0.2 ug/ml rifampin measured at 4 weeks (reference value: 147 +/- 19.1%)
# Mycobacterium leprae [9] = experiment: Antimicrobial activity against Mycobacterium leprae assessed as microbial growth at 0.0938 ug/ml in presence of 0.2 ug/ml rifampin measured at 4 weeks (reference value: 147 +/- 19.1%)
# Mycobacterium leprae [10] = experiment: Antimicrobial activity against Mycobacterium leprae assessed as microbial growth at 0.0469 ug/ml in presence of 0.0031 ug/ml KRM-1648 measured at 4 weeks (reference value: 147 +/- 19.1%)
# Mycobacterium leprae [11] = experiment: Antimicrobial activity against Mycobacterium leprae assessed as microbial growth at 0.1875 ug/ml in presence of 0.05 ug/ml rifabutin measured at 4 weeks (reference value: 147 +/- 19.1%)
# Mycobacterium leprae [12] = experiment: Antimicrobial activity against Mycobacterium leprae assessed as microbial growth at 0.375 ug/ml in presence of 0.2 ug/ml rifampin measured at 4 weeks (reference value: 147 +/- 19.1%)
# Mycobacterium leprae [13] = experiment: Antimicrobial activity against Mycobacterium leprae assessed as fractional inhibitory concentration index at 0.1875 ug/ml in presence of 0.05 ug/ml rifabutin measured at 4 weeks
# Mycobacterium leprae [14] = experiment: Antimicrobial activity against Mycobacterium leprae assessed as microbial growth at 0.1875 ug/ml in presence of 0.0125 ug/ml KRM-1648 measured at 4 weeks (reference value: 147 +/- 19.1%)
# Mycobacterium leprae [15] = experiment: Antimicrobial activity against Mycobacterium leprae assessed as microbial growth at 0.1875 ug/ml in presence of 0.0062 ug/ml KRM-1648 measured at 4 weeks (reference value: 147 +/- 19.1%)
# Mycobacterium leprae [16] = experiment: Antimicrobial activity against Mycobacterium leprae assessed as microbial growth at 0.375 ug/ml in presence of 0.1 ug/ml rifampin measured at 4 weeks (reference value: 147 +/- 19.1%)
# Mycobacterium leprae [17] = experiment: Antimicrobial activity against Mycobacterium leprae assessed as fractional inhibitory concentration index at 0.375 ug/ml in presence of 0.2 ug/ml rifampin measured at 4 weeks
# Mycobacterium leprae [18] = experiment: Antimicrobial activity against Mycobacterium leprae assessed as fractional inhibitory concentration index at 0.1875 ug/ml in presence of 0.0125 ug/ml KRM-1648 measured at 4 weeks
# Mycobacterium leprae [19] = experiment: Antimicrobial activity against Mycobacterium leprae assessed as microbial growth at 0.1875 ug/ml in presence of 0.025 ug/ml rifabutin measured at 4 weeks (reference value: 147 +/- 19.1%)
SMILES,Activity (Mycobacterium leprae [1]),fractional inhibitory concentration index (FICI) (Mycobacterium leprae [2]),Activity (Mycobacterium leprae [3]),Activity (Mycobacterium leprae [4]),fractional inhibitory concentration index (FICI) (Mycobacterium leprae [5]),Activity (Mycobacterium leprae [6]),fractional inhibitory concentration index (FICI) (Mycobacterium leprae [7]),Activity (Mycobacterium leprae [8]),Activity (Mycobacterium leprae [9]),Activity (Mycobacterium leprae [10]),Activity (Mycobacterium leprae [11]),Activity (Mycobacterium leprae [12]),fractional inhibitory concentration index (FICI) (Mycobacterium leprae [13]),Activity (Mycobacterium leprae [14]),Activity (Mycobacterium leprae [15]),Activity (Mycobacterium leprae [16]),fractional inhibitory concentration index (FICI) (Mycobacterium leprae [17]),fractional inhibitory concentration index (FICI) (Mycobacterium leprae [18]),Activity (Mycobacterium leprae [19])
N[C@@H]1CN(c2c(F)cc3c(=O)c(C(=O)O)cn([C@@H]4C[C@@H]4F)c3c2Cl)CC12CC2 [SITAFLOXACIN ANHYDROUS],0%,0.5,124%,0%,1,141%,0.375,138%,0%,89%,,,,,,,,,
C[C@H]1COc2c(N3CCN(C)CC3)c(F)cc3c(=O)c(C(=O)O)cn1c23.C[C@H]1COc2c(N3CCN(C)CC3)c(F)cc3c(=O)c(C(=O)O)cn1c23.O [LEVOFLOXACIN],,,,,,,,,,,0%,0%,0.5,0%,115%,87%,1,0.5,133%
